Test results as given in patent publication US10173971B2, “Picolinamides with fungicidal activity” (DOW AGROSCIENCES LLC, priority 2014, dated 2019).
Read-outs that look alike come from different tables or passages of the source.

What was measured:
Zymoseptoria tritici = test: Fungicidal activity: leaf blotch of wheat (SEPTTR), wheat seedlings, booth sprayer to run-off or track spray; assay type: in vivo; conditions: High-Volume Cereal Activity at 100 ppm
Description: All fungicides were evaluated using the aforementioned method for their activity vs. all target diseases. Wheat leaf blotch and brown rust activity were also evaluated using track spray applications, in which case the fungicides were formulated as EC formulations, containing 0.1% Trycol 5941 in the spray solutions. Wheat plants (variety Yuma) were grown from seed in a greenhouse in 50% mineral soil/50% soil-less Metro mix until the first leaf was fully emerged, with 7-10 seedlings per pot. These plants were inoculated with an aqueous spore suspension of Zymoseptoria tritici either prior to or after fungicide treatments. After inoculation the plants were kept in 100% relative humidity (one day in a dark dew chamber followed by two to three days in a lighted dew chamber at 20° C.) to permit spores to germinate and infect the leaf. The plants were then transferred to a greenhouse set at 20° C. for disease to develop. When disease symptoms were fully expressed on the 1st leaves of untreated plants, infection levels were assessed on a scale of 0 to 100 percent disease severity. Percent disease control was calculated using the ratio of disease severity on treated plants relative to untreated plants.

Puccinia triticina = test: Fungicidal activity: wheat brown rust (PUCCRT), wheat seedlings, booth sprayer to run-off or track spray; assay type: in vivo; conditions: High-Volume Cereal Activity at 100 ppm
Description: All fungicides were evaluated using the aforementioned method for their activity vs. all target diseases. Wheat leaf blotch and brown rust activity were also evaluated using track spray applications, in which case the fungicides were formulated as EC formulations, containing 0.1% Trycol 5941 in the spray solutions. Wheat plants (variety Yuma) were grown from seed in a greenhouse in 50% mineral soil/50% soil-less Metro mix until the first leaf was fully emerged, with 7-10 seedlings per pot. These plants were inoculated with an aqueous spore suspension of Puccinia triticina either prior to or after fungicide treatments. […] The plants were then transferred to a greenhouse set at 24° C. for disease to develop. Fungicide formulation, application and disease assessment followed the procedures as described in the Example A.

[1] = 24 h, 1 Day Protectant, read-out: SEPTTR 1DP
[2] = 3DC (Day Curative), read-out: SEPTTR 3DC
[3] = 24 h, 1 Day Protectant, read-out: PUCCRT 1DP
[4] = 3DC (Day Curative), read-out: PUCCRT 3DC

CCCO[C@@H](CC)[C@@H](Cc1ccccc1)[C@H](C)OC(=O)[C@H](C)NC(=O)c1nccc(OC)c1O [compound 91]
pest or weed control at 100 ppm (Zymoseptoria tritici; [1]): 0 to 80% | pest or weed control at 100 ppm (Zymoseptoria tritici; [2]): 80 to 100% | pest or weed control at 100 ppm (Puccinia triticina; [3]): 80 to 100% | pest or weed control at 100 ppm (Puccinia triticina; [4]): 80 to 100%

CCCO[C@H](CC)[C@@H](Cc1ccccc1)[C@H](C)OC(=O)[C@H](C)NC(=O)c1nccc(OC)c1O [compound 92]
pest or weed control at 100 ppm (Zymoseptoria tritici; [1]): 80 to 100% | pest or weed control at 100 ppm (Zymoseptoria tritici; [2]): 80 to 100% | pest or weed control at 100 ppm (Puccinia triticina; [3]): 80 to 100% | pest or weed control at 100 ppm (Puccinia triticina; [4]): 80 to 100%

CCCOC[C@@H](Cc1ccccc1)[C@H](C)OC(=O)[C@H](C)NC(=O)c1nccc(OC)c1O [compound 93]
pest or weed control at 100 ppm (Zymoseptoria tritici; [1]): 0 to 80% | pest or weed control at 100 ppm (Zymoseptoria tritici; [2]): 80 to 100% | pest or weed control at 100 ppm (Puccinia triticina; [3]): 80 to 100% | pest or weed control at 100 ppm (Puccinia triticina; [4]): 80 to 100%

CCCO[C@@H](CC)[C@@H](Cc1ccccc1)[C@H](C)OC(=O)[C@@H](C)NC(=O)c1nccc(OC)c1O [compound 94]
pest or weed control at 100 ppm (Zymoseptoria tritici; [1]): 0 to 80% | pest or weed control at 100 ppm (Zymoseptoria tritici; [2]): 0 to 80% | pest or weed control at 100 ppm (Puccinia triticina; [3]): 80 to 100% | pest or weed control at 100 ppm (Puccinia triticina; [4]): 80 to 100%

CCCO[C@@H](CC)[C@@H](Cc1ccccc1)[C@H](C)OC(=O)[C@H](CC)NC(=O)c1nccc(OC)c1O [compound 95]
pest or weed control at 100 ppm (Zymoseptoria tritici; [1]): 0 to 80% | pest or weed control at 100 ppm (Zymoseptoria tritici; [2]): 0 to 80% | pest or weed control at 100 ppm (Puccinia triticina; [3]): 80 to 100% | pest or weed control at 100 ppm (Puccinia triticina; [4]): 80 to 100%

CCCO[C@H](CC)[C@@H](Cc1ccccc1)[C@H](C)OC(=O)[C@@H](C)NC(=O)c1nccc(OC)c1O [compound 96]
pest or weed control at 100 ppm (Zymoseptoria tritici; [1]): 80 to 100% | pest or weed control at 100 ppm (Zymoseptoria tritici; [2]): 0 to 80% | pest or weed control at 100 ppm (Puccinia triticina; [3]): 80 to 100% | pest or weed control at 100 ppm (Puccinia triticina; [4]): 80 to 100%

CCCOC[C@@H](Cc1ccccc1)[C@H](C)OC(=O)[C@@H](C)NC(=O)c1nccc(OC)c1O [compound 97]
pest or weed control at 100 ppm (Zymoseptoria tritici; [1]): 0 to 80% | pest or weed control at 100 ppm (Zymoseptoria tritici; [2]): 0 to 80% | pest or weed control at 100 ppm (Puccinia triticina; [3]): 0 to 80% | pest or weed control at 100 ppm (Puccinia triticina; [4]): 0 to 80%

CCCOC[C@@H](Cc1ccccc1)[C@H](C)OC(=O)[C@H](CC)NC(=O)c1nccc(OC)c1O [compound 98]
pest or weed control at 100 ppm (Zymoseptoria tritici; [1]): 80 to 100% | pest or weed control at 100 ppm (Zymoseptoria tritici; [2]): 80 to 100% | pest or weed control at 100 ppm (Puccinia triticina; [3]): 80 to 100% | pest or weed control at 100 ppm (Puccinia triticina; [4]): 80 to 100%

CCCOC[C@@H](Cc1ccccc1)[C@H](C)OC(=O)C(C)(C)NC(=O)c1nccc(OC)c1O [compound 99]
pest or weed control at 100 ppm (Zymoseptoria tritici; [2]): 0 to 80% | pest or weed control at 100 ppm (Puccinia triticina; [3]): 0 to 80% | pest or weed control at 100 ppm (Puccinia triticina; [4]): 0 to 80%

CCCO[C@@H](CC)[C@@H](Cc1ccccc1)[C@H](C)OC(=O)C(C)(C)NC(=O)c1nccc(OC)c1O [compound 100]
pest or weed control at 100 ppm (Zymoseptoria tritici; [2]): 0 to 80% | pest or weed control at 100 ppm (Puccinia triticina; [3]): 0 to 80%

CC[C@H](CCCc1ccccc1)[C@@H](CC(C)C)[C@H](C)OC(=O)C(C)NC(=O)c1nccc(OC)c1O (stereo partly drawn) [compound 101]
pest or weed control at 100 ppm (Zymoseptoria tritici; [1]): 80 to 100% | pest or weed control at 100 ppm (Puccinia triticina; [3]): 80 to 100% | pest or weed control at 100 ppm (Puccinia triticina; [4]): 0 to 80%

CC[C@H](CC1CC1)[C@@H](Cc1ccccc1)[C@H](C)OC(=O)[C@H](C)NC(=O)c1nccc(OC)c1O [compound 102]
pest or weed control at 100 ppm (Zymoseptoria tritici; [1]): 0 to 80% | pest or weed control at 100 ppm (Zymoseptoria tritici; [2]): 80 to 100% | pest or weed control at 100 ppm (Puccinia triticina; [3]): 80 to 100% | pest or weed control at 100 ppm (Puccinia triticina; [4]): 80 to 100%

CC[C@H](Cc1ccccc1)[C@@H](Cc1ccc(F)cc1)[C@H](C)OC(=O)[C@H](C)NC(=O)c1nccc(OC)c1O [compound 103]
pest or weed control at 100 ppm (Zymoseptoria tritici; [1]): 80 to 100% | pest or weed control at 100 ppm (Zymoseptoria tritici; [2]): 0 to 80% | pest or weed control at 100 ppm (Puccinia triticina; [3]): 80 to 100% | pest or weed control at 100 ppm (Puccinia triticina; [4]): 0 to 80%

CCCOC[C@@H](Cc1ccccc1)[C@H](C)OC(=O)CNC(=O)c1nccc(OC)c1O [compound 104]
pest or weed control at 100 ppm (Zymoseptoria tritici; [2]): 0 to 80% | pest or weed control at 100 ppm (Puccinia triticina; [4]): 0 to 80%

CCOC[C@H](Oc1ccc(C)cc1)[C@@H](Cc1ccc(F)cc1)[C@H](C)OC(=O)[C@H](C)NC(=O)c1nccc(OC)c1O [compound 105]
pest or weed control at 100 ppm (Zymoseptoria tritici; [1]): 0 to 80% | pest or weed control at 100 ppm (Zymoseptoria tritici; [2]): 0 to 80% | pest or weed control at 100 ppm (Puccinia triticina; [3]): 80 to 100% | pest or weed control at 100 ppm (Puccinia triticina; [4]): 0 to 80%

CCCOC[C@@H](Cc1ccccc1)[C@H](C)OC(=O)C(COC)NC(=O)c1nccc(OC)c1O (stereo partly drawn) [compound 106]
pest or weed control at 100 ppm (Zymoseptoria tritici; [2]): 0 to 80% | pest or weed control at 100 ppm (Puccinia triticina; [3]): 0 to 80% | pest or weed control at 100 ppm (Puccinia triticina; [4]): 0 to 80%

C=C[C@H](Cc1ccc(C(F)(F)F)cc1)[C@@H](Cc1ccc(F)cc1)[C@H](C)OC(=O)[C@H](COC)NC(=O)c1nccc(OC)c1O [compound 107]
pest or weed control at 100 ppm (Puccinia triticina; [3]): 0 to 80%

C=C[C@H](Cc1ccc(C(F)(F)F)cc1)[C@@H](Cc1ccc(F)cc1)[C@H](C)OC(=O)[C@H](C)NC(=O)c1nccc(OC)c1O [compound 108]
pest or weed control at 100 ppm (Zymoseptoria tritici; [2]): 0 to 80% | pest or weed control at 100 ppm (Puccinia triticina; [3]): 80 to 100%
